From US12016834B2, “Small molecule inhibitors of SLC25A1” (GEORGETOWN UNIVERSITY, priority 2017, dated 2024)

Columns and labels:
MP2 cells [1] = assay: Seahorse OCR and ATP in patient-derived cells; format: cell-based, human; conditions: monolayer, chronic treatment for several passages (FIG. 6B)
Method: Primary lung cancer cultures and GMSC. Surgical samples were minced and digested with dispase (50 U/ml) in DMEM media containing 5% serum for 1 hour. Pleural effusions were centrifuged, washed once in PBS, and then plated. All primary cultures were initially grown on 6-well plates pre-coated with 2% Geltrex (Life Technologies; Carlsbad, CA) and 1% Maxgel (Sigma Aldrich). Maxgel is a humanized matrix, native and non-denatured. The inclusion of Maxgel in the system enhanced the initial attachment of primary tumor cells, partially because Maxgel provides a more natural ECM conformational substrate. The day after plating, the media containing unattached cells was typically transferred to a fresh plate, in most of cases generating new attached cultures. The media (Stem Cell Media) is the DMEM/F12 (Thermo-Fisher #11320-033 basic media) supplemented with the following components: Insulin-Transferrin-Sodium selenite (ITS; 1:1000; Sigma #11884); glutamine (Thermo-Fisher) to 4 mM final concentration; sodium pyruvate (Thermo-Fisher) to 2 mM final concentration; rock inhibitor (Y-27632) 10 micrograms/mL; 2-5% Knock Out Serum Replacement (KNOSR, Thermo-Fisher #10828-028); 0.5% ALBUMAX-(Lipid enriched BSA; Thermo-Fisher #11020-021); N2 Supplement (Thermo-Fisher) 1:250; EGF (5 ng/ml; Peprotech); hFGF (20 ng/ml; Bechman); and IGF-1 (Peprotech; 10-20 ng/ml).
Seahorse extracellular flux analyzer experiments. Cells derived from spheres or monolayer cultures were dissociated and plated overnight at 12,000 cells/well in DMEM with 10% FBS, 5 mM glucose, 1 mM pyruvate, 2 mM glutamine.
For the mitochondrial stress test, the media was replaced with DMEM without FBS or bicarbonate, containing 5 mM glucose, 1 mM pyruvate, 2 mM glutamine and placed in a CO2 free incubator at 37° C. for 1 hour, and then transferred to the Xf96 extracellular flux analyzer (Agilent; Santa Clara, CA). The program consisted of 3 measurements of OCR/ECAR before the injection of each drug: oligomycin (0.5 μM final concentration), FCCP (2 μM) and rotenone/antimycin (0.5 μM of each). For the glycolysis stress test, cells were plated overnight as above, and the media was washed twice the following day with DMEM without FBS, bicarbonate, glucose, glutamine or pyruvate, and incubated in this media in a CO2 free incubator with/without drug treatments at 37° C. for 4 hours. There were 3 measurements of OCR/ECAR before each injection: glucose (10 mM final concentration), oligomycin (0.5 […] (50 mM). For the analysis of glutamine oxidation, the protocol was the same as the glucose stress test, but with glutamine being the only compound injected (final concentration 4 mM) and OCR/ECAR measured for 60 minutes. When spheres were analyzed, they were dissociated with StemPro® Accutase® (Thermo Scientific; Waltham, MA) and plated under the same conditions as above as for the monolayers the day before the assay (H1299 spheres), or in stem cell media (See Stem Cell Media) with the wells coated in 15 μL of 2% geltrex diluted in DMEM:F12 (Thermo Scientific). The results were normalized to cell number.

MP1 cells = assay: Viability (Crystal Violet) and drug interaction (R index); format: cell-based, human; conditions: single drug, 5 days, monolayer
Method: (§1) Cellular proliferation and cytotoxicity assays. […] The cells were then washed with 1×PBS and fixed with cold 100% methanol at−20° C. for 20 minutes. Methanol was washed off and the cells were stained with 0.5% crystal violet dissolved in 25% methanol and water at 4° C. for 20 minutes. The staining was washed off using deionized (DI) water and the plate was dried overnight. On the second day, 100 mM sodium citrate in 50% ethanol and 50% water was added to the wells and absorbance at 550 nm was measured and corrected with readings at 405 nm. In other experiments, cell viability was assessed by trypan blue exclusion and visual count of the live cells was performed.
(§2) Statistical methods for drug interactions. […] Sexp/Sobs=1.0 denotes an additive interaction, while >1.0 denotes a synergistic interaction. R index values approaching 2.0 are indicative of strong synergy.

MP2 cells [2] = assay: as above; format: cell-based, human; conditions: single drug, 5 days, monolayer
Method: as §1, §2

MP3 cells = assay: as above; format: cell-based, human; conditions: single drug, 5 days, monolayer
Method: as §1, §2

H1299 cells = assay: Sphere forming / self-renewal assay; format: cell-based, human; conditions: one week after treatment; BTA 2 mM, CTPI 1 mM (FIG. 9F)
Method: Growth of monolayers and sphere cultures. Tumor cell lines were grown as monolayers in complete Dulbecco's Modified Eagle's Media (DMEM, Gibco; supplemented with 10% fetal bovine serum and 1% of 5,000 units/mL of penicillin-streptomycin (pen-strep), Gibco). To generate spheroids, cells were grown in Falcon bacteriological petri dishes coated with 2% poly(2-hydroxyethyl methacrylate) dissolved in 100% ethanol. The growth media was DMEM/F12 (Gibco) supplemented with 20 ng/mL of epidermal growth factor (EGF), 5 ng/mL of fibroblast growth factor, 0.375% 100× N2 supplements (Gibco), and 1% pen-strep. Monolayer cells were dissociated using 0.25% trypsin-edta (Gibco), whereas spheroid cultures were dissociated using StemPro Accutase (Gibco). Patient derived cell lines were grown as described below in the primary lung cultures section.
Self-renewal assays. Tumor cells cultured as spheroids were dissociated and diluted in 2× sphere media containing 1% methyl cellulose, which was previously dissolved in cold DMEM/F12 media. Either 200, 500, or 1000 cells were then plated in each 96 well and were incubated in the presence or absence of drugs, as indicated. The spheres were allowed to form for a period of a week to ten days, at which point they were counted. Six biological replicates were used for quantification of the results.

SLC25A1 = SLC25A1 (Homo sapiens, UniProt P53007); conditions: cited from earlier work
SLC25A1, sequence (P53007 14-311, species assumed): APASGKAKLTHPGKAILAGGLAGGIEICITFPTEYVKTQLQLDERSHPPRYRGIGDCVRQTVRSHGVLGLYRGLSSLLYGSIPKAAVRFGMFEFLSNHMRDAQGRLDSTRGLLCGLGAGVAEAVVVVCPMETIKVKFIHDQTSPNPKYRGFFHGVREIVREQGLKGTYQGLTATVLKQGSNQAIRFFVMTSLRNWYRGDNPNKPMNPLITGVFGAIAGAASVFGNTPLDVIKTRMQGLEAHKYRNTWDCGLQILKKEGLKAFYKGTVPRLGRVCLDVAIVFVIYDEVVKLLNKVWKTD

SMILES	mitochondrial respiration after chronic drug treatment (MP2 cells [1])	response to drug (viability) (MP1 cells)	response to drug (viability) (MP2 cells [2])	response to drug (viability) (MP3 cells)	sphere forming capacity (H1299 cells)	concentration required for inhibition of SLC25A1 (SLC25A1)
C=CC(=O)Nc1cc(Nc2nccc(-c3cn(C)c4ccccc34)n2)c(OC)cc1N(C)CCN(C)C [AZD9291, osimertinib, reference compound]	dramatic shift towards mitochondrial respiration	minimal response	minimal response	complete insensitivity		
O=C(O)c1cccc(C(=O)O)c1C(=O)O [BTA, 1,2,3, Benzenetricarboxylic acid]					reduced sphere forming capacity	millimolar concentration
